Strand notation (5' to 3'): a small letter for the sugar, then the base; units joined by * are phosphorothioate-linked, units joined directly phosphodiester-linked; [ ] holds rarer units or linkages, { } end groups; capitals alone tell only the bases. k = constrained ethyl (cEt); [5mC] = 5-methylcytosine; d = 2'-deoxy (DNA)

What is called IC50 is the concentration that inhibits the measured activity by half. Read a high IC50 as a need for much substance.

The subject of this series is Yap1 mRNA. As to the kind of experiment: Dose-dependent inhibition of human Yap1 in A-431 cells (Example 7, 10,000 cells per well, RTS36584). It counts as cell-based. The following applies: free uptake. As for the experimental part:
Modified oligonucleotides described in the studies above were tested at various doses in A-431 cells. Cultured A-431 cells at a density of 10,000 cells per well were treated using free uptake with modified oligonucleotides diluted to concentrations described in the tables below. After approximately 48 hours, Yap1 mRNA levels were measured as previously described using the Human Yap1 primer-probe set RTS36584. Yap1 mRNA levels were normalized to total RNA content, as measured by RIBOGREEN®. Results are presented in the tables below as percent control of the amount of Yap1 mRNA relative to untreated control cells (% UTC). IC50s were calculated using a linear regression on a log/linear plot of the data in excel.

[1] abbreviates: Table 59, 15.6 nM, A-431 cells 10,000 cells per well, 48 hours.
Setting [2] is: Table 59, 62.5 nM, A-431 cells 10,000 cells per well, 48 hours.
The mark [3] stands for this setting: Table 59, 4000.00 nM, A-431 cells 10,000 cells per well, 48 hours.
Where [4] appears, read: Table 59, A-431 cells 10,000 cells per well.
Where [5] appears, read: Table 60, 15.6 nM, A-431 cells 10,000 cells per well, 48 hours.
[6] abbreviates: Table 60, 62.5 nM, A-431 cells 10,000 cells per well, 48 hours.
Setting [7] is: Table 60, 4000.00 nM, A-431 cells 10,000 cells per well, 48 hours.
Setting [8] is: Table 60, A-431 cells 10,000 cells per well.
Setting [9] is: Table 58, 15.6 nM, A-431 cells 10,000 cells per well, 48 hours.
[10] abbreviates: Table 58, 62.5 nM, A-431 cells 10,000 cells per well, 48 hours.
The mark [11] stands for this setting: Table 58, 4000.00 nM, A-431 cells 10,000 cells per well, 48 hours.
Where [12] appears, read: Table 58, A-431 cells 10,000 cells per well.
Where [13] appears, read: Table 56, 15.6 nM, A-431 cells 10,000 cells per well, 48 hours.
Setting [14] is: Table 56, 62.5 nM, A-431 cells 10,000 cells per well, 48 hours.
Where [15] appears, read: Table 56, 4000.00 nM, A-431 cells 10,000 cells per well, 48 hours.
Where [16] appears, read: Table 56, A-431 cells 10,000 cells per well.
[17] abbreviates: 15.6 nM, A-431 cells, 10,000 cells per well, approximately 48 hours.
Setting [18] is: 62.5 nM, A-431 cells, 10,000 cells per well, approximately 48 hours.
Where [19] appears, read: 4000.00 nM, A-431 cells, 10,000 cells per well, approximately 48 hours.
The mark [20] stands for this setting: A-431 cells, approximately 48 hours, linear regression on log/linear plot.

With “958767 (kA*k[5mC]*kG*dA*dA*dT*dA*dA*dG*dG*d[5mC]*dA*dT*kT*kA*kG; antisense) [compound 958767]”, the “Yap1 mRNA, % UTC” value reads like this: under setting [1], 101 % UTC; under setting [2], 57 % UTC; under setting [3], 10 % UTC. Also, the IC50 under setting [4] is 100 nM.
Turning to “958593 (kG*kG*kT*d[5mC]*dA*dG*dT*dA*d[5mC]*dA*dG*dA*dG*kG*kG*k[5mC]; antisense) [compound 958593]”, the “Yap1 mRNA, % UTC” value under setting [5] was found to be 99 % UTC; the “Yap1 mRNA, % UTC” value under setting [6] came to 60 % UTC; the “Yap1 mRNA, % UTC” value under setting [7] is 15 % UTC. Under setting [8], the IC50 stood at 100 nM.
With “958533 (kG*k[5mC]*kA*dT*dA*dG*dA*dA*dG*dT*dA*dG*dG*kA*kG*k[5mC]; antisense) [compound 958533]”, the “Yap1 mRNA, % UTC” value under setting [1] was found to be 99 % UTC; the “Yap1 mRNA, % UTC” value under setting [2] was determined as 61 % UTC; the “Yap1 mRNA, % UTC” value under setting [3] is 12 % UTC. The substance further came in with an IC50 under setting [4] of 100 nM.
As to “958742 (kA*kG*k[5mC]*dA*dA*dT*dA*dT*dG*dG*dT*dA*dT*kT*kA*kG; antisense) [compound 958742]”, the “Yap1 mRNA, % UTC” value under setting [9] is 105 % UTC; the “Yap1 mRNA, % UTC” value under setting [10] is listed as 70 % UTC; the “Yap1 mRNA, % UTC” value under setting [11] is 20 % UTC. In addition, 200 nM corresponded to half-maximal inhibition under setting [12] (IC50).
On to “958718 (kG*kA*kA*d[5mC]*dA*d[5mC]*dT*dA*dT*dA*dG*d[5mC]*dT*kT*kG*kG; antisense) [compound 958718]”, for which the “Yap1 mRNA, % UTC” value under setting [5] is 104 % UTC; the “Yap1 mRNA, % UTC” value under setting [6] was 80 % UTC; the “Yap1 mRNA, % UTC” value under setting [7] worked out at 24 % UTC. The substance also registered an IC50 under setting [8] of 200 nM.
Consider “958370 (antisense k[5mC]*kT*kT*dT*dA*dT*d[5mC]*dT*dA*dG*d[5mC]*dT*dT*kG*kG*kT) [compound 958370]”, for which the “Yap1 mRNA, % UTC” value was found to be 98 % UTC under setting [13], 74 % UTC under setting [14] and 22 % UTC under setting [15]. The 50% inhibitory concentration (IC50) under setting [16] was found to be 200 nM.
“958485 (kA*kG*kA*dG*dG*dT*d[5mC]*dA*dG*d[5mC]*dA*dA*dT*kA*k[5mC]*kA; antisense) [compound 958485]”: the “Yap1 mRNA, % UTC” value under setting [17] is reported as 68 % UTC; the “Yap1 mRNA, % UTC” value under setting [18] is reported as 38 % UTC; the “Yap1 mRNA, % UTC” value under setting [19] stood at 8 % UTC. This substance also returned a half-inhibitory concentration (IC50) under setting [20] of 40 nM.
With “958752 (kG*kA*kA*dT*dT*dT*dT*dT*dA*dG*dT*d[5mC]*d[5mC]*kA*kG*kT; antisense) [compound 958752]”, the “Yap1 mRNA, % UTC” value by setting is: under setting [9], 102 % UTC; under setting [10], 66 % UTC; under setting [11], 9 % UTC. The same substance showed an IC50 under setting [12] of 100 nM.
As for “958730 (k[5mC]*kT*k[5mC]*dT*dG*dT*d[5mC]*dA*dG*dT*dT*dA*dT*k[5mC]*k[5mC]*kT; antisense) [compound 958730]”, the “Yap1 mRNA, % UTC” value is on record as 88 % UTC under setting [17], 48 % UTC under setting [18] and 7 % UTC under setting [19]. Moreover, half-maximal inhibition under setting [20] (IC50) required 100 nM.
In the case of “958476 (kT*kT*k[5mC]*d[5mC]*dG*dG*dT*dG*d[5mC]*dA*dT*dG*dT*kG*kT*k[5mC]; antisense) [compound 958476]”, the “Yap1 mRNA, % UTC” value was 71 % UTC under setting [13], 30 % UTC under setting [14] and 6 % UTC under setting [15]. Besides, the IC50 under setting [16] came out at 30 nM.
In the case of “958799 (kA*kT*kT*dA*d[5mC]*dT*d[5mC]*dA*dA*dT*d[5mC]*dA*dT*kG*kG*kT; antisense) [compound 958799]”, the “Yap1 mRNA, % UTC” value reads like this: (Table 61, 15.6 nM, A-431 cells 10,000 cells per well, 48 hours) 88 % UTC; (Table 61, 62.5 nM, A-431 cells 10,000 cells per well, 48 hours) 53 % UTC; (Table 61, 4000.00 nM, A-431 cells 10,000 cells per well, 48 hours) 10 % UTC. This substance also gave a concentration for half-maximal inhibition (IC50) (Table 61, A-431 cells 10,000 cells per well) of 100 nM.

These data come from patent US11214803B2, “Modulators of YAP1 expression” (Ionis Pharmaceuticals, Inc., priority 2019, dated 2022).
